Assay results taken from patent publication US7074789B2, “Kinase inhibitors” (Amgen Inc., priority 1999, dated 2006).
Where two headings read alike, the source gives them in different places.

What was measured:
Format in all cases: biochemical
[1] = target: T1, Lck (Homo sapiens, UniProt P06239); experiment: Kinase inhibition assay (33P transfer), Lck; details: read-out: Lck-1
T1 construct: Kinases are expressed as either kinase domains or full length constructs; made in house
Summary of the method: (§1)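 Filterless plate radiometric format: immobilized poly(Glu,Tyr) 4:1 or poly(Arg,Ser) 3:1, 33P-labelled ATP, tagged recombinant kinase (some with regulatory partners). Incorporated label counted after phosphoric acid wash.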

[2] = target: T2, Zap-70 (Homo sapiens, UniProt P43403); experiment: Kinase inhibition assay (33P transfer), Zap-70; details: read-out: Zap-1
T2 construct: Kinases are expressed as either kinase domains or full length constructs; made in house
T2 sequence (P43403 1-619): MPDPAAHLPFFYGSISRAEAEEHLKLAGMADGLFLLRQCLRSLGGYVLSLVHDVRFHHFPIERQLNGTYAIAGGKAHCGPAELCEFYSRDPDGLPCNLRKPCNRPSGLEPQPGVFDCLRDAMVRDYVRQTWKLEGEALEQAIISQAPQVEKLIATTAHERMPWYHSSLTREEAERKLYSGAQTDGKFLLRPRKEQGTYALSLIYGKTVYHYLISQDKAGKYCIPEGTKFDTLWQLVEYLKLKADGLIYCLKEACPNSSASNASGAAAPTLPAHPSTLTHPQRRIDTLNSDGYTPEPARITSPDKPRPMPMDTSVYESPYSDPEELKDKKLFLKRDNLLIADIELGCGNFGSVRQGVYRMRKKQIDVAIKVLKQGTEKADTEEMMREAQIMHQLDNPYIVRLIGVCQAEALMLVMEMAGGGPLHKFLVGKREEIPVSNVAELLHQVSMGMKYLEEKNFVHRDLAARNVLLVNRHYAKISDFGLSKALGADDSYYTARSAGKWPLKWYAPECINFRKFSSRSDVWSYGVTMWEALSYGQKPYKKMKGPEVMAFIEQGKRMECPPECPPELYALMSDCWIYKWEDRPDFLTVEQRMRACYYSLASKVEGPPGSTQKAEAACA
Summary of the method: as §1

[3] = target: T3, Itk (Homo sapiens, UniProt Q08881); experiment: Kinase inhibition assay (33P transfer), Itk; details: read-out: Itk-1
T3 construct: Kinases are expressed as either kinase domains or full length constructs; made in house
T3 sequence (Q08881 1-620): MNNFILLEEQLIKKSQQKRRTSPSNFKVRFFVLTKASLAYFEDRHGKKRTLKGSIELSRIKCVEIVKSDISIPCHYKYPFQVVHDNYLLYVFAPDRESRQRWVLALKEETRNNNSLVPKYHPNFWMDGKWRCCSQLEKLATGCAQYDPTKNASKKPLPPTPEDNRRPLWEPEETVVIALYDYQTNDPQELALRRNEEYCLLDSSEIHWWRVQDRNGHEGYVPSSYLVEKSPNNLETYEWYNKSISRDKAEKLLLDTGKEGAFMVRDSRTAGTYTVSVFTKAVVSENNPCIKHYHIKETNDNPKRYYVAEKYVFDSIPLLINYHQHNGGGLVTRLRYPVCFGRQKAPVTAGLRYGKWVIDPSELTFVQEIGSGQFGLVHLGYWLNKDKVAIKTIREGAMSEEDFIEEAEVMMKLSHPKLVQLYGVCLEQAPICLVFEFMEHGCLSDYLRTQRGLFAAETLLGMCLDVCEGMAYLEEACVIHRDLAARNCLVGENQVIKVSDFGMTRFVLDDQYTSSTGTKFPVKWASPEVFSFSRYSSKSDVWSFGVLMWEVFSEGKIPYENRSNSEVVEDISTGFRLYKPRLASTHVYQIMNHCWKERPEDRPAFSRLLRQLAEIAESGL
Summary of the method: (§2)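 Activity read as 33P incorporation from ATP into poly(Glu,Tyr) 4:1 or poly(Arg,Ser) 3:1 substrate bound to microtiter plates, measured by scintillation after acid washing. Enzymes were affinity-purified GST or polyHis fusions (kinase domain or full length) from E. coli or baculovirus; IC50 = 50% reduction in labelled phosphate.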

[4] = target: T4, EGFR (Homo sapiens, UniProt P00533); experiment: Kinase inhibition assay (33P transfer), EGFR; details: Table 2, kinase inhibition class; read-out: EGFR-1
T4 construct: Kinases are expressed as either kinase domains or full length constructs; made in house
T4 sequence (P00533 25-1210, species assumed): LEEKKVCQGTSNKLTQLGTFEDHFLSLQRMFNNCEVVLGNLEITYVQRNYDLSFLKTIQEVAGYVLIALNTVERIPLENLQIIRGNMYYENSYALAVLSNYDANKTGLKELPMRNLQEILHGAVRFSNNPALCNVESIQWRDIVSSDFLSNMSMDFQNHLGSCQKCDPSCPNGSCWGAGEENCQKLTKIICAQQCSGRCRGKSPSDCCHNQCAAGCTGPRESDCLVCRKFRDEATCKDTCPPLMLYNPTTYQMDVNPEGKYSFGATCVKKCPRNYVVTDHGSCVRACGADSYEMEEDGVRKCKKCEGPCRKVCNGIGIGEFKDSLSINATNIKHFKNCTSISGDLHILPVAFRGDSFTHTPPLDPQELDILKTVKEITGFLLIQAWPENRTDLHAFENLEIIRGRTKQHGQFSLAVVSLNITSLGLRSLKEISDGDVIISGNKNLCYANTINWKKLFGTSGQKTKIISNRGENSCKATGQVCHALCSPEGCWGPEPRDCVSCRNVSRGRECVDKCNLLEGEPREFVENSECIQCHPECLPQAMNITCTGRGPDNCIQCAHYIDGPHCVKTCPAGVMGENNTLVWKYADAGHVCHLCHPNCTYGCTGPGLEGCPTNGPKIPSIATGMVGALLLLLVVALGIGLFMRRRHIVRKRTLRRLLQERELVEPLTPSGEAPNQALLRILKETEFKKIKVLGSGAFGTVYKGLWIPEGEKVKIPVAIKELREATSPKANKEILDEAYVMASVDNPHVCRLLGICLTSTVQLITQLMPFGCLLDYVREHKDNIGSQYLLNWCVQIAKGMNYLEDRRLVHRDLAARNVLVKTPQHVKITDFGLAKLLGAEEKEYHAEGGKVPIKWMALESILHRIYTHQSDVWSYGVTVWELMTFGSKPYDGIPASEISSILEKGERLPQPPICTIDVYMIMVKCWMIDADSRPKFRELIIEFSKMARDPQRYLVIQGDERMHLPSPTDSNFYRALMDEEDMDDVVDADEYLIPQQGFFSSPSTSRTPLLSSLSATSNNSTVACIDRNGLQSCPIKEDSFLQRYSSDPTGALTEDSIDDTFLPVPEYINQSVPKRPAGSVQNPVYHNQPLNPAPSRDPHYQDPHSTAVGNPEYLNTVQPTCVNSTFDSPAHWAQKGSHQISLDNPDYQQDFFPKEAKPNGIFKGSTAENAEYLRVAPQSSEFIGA
Summary of the method: as §2

[5] = target: T5, Kdr (Homo sapiens, UniProt P35968); experiment: Kinase inhibition assay (33P transfer), Kdr; details: read-out: KDR-1
T5 construct: Kinases are expressed as either kinase domains or full length constructs; made in house
T5 sequence (P35968 20-1356, species assumed): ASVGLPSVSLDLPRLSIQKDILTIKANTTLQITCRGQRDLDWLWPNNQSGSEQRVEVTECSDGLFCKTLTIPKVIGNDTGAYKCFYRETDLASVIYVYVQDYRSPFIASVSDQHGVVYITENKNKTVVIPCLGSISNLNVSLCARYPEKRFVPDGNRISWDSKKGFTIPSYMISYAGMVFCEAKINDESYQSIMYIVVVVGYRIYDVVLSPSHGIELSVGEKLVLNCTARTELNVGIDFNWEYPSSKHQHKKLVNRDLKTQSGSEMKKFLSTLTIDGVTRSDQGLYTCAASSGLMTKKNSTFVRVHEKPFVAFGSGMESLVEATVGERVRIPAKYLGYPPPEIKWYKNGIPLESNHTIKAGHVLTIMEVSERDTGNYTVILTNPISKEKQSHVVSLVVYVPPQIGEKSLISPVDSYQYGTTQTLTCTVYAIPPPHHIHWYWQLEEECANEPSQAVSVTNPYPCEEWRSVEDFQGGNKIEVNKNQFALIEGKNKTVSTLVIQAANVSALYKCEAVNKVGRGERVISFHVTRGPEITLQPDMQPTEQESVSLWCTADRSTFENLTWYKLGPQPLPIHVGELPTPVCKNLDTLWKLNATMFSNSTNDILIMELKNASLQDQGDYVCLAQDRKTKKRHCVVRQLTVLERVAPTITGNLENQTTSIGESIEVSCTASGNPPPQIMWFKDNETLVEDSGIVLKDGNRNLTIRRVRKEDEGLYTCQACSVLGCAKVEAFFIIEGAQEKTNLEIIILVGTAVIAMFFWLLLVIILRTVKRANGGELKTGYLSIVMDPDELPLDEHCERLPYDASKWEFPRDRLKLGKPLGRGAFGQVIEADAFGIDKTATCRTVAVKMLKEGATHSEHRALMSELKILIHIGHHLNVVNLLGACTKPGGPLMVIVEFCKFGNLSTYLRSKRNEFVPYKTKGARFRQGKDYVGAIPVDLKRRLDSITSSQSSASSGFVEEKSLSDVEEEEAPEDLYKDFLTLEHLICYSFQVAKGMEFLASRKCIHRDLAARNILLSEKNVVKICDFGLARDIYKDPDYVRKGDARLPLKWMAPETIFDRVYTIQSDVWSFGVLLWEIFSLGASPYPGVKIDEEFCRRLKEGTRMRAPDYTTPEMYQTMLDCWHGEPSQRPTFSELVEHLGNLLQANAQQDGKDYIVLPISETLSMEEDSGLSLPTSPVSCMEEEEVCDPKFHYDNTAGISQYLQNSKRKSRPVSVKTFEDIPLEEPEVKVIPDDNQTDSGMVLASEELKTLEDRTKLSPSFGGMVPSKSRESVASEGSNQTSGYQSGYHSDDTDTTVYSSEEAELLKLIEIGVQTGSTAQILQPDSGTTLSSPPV
Summary of the method: as §1

[6] = target: T6, Tek (Homo sapiens, UniProt Q02763); experiment: Kinase inhibition assay (33P transfer), Tek; details: read-out: Tek-1
T6 construct: Kinases are expressed as either kinase domains or full length constructs; made in house
T6 sequence (Q02763 23-1124, species assumed): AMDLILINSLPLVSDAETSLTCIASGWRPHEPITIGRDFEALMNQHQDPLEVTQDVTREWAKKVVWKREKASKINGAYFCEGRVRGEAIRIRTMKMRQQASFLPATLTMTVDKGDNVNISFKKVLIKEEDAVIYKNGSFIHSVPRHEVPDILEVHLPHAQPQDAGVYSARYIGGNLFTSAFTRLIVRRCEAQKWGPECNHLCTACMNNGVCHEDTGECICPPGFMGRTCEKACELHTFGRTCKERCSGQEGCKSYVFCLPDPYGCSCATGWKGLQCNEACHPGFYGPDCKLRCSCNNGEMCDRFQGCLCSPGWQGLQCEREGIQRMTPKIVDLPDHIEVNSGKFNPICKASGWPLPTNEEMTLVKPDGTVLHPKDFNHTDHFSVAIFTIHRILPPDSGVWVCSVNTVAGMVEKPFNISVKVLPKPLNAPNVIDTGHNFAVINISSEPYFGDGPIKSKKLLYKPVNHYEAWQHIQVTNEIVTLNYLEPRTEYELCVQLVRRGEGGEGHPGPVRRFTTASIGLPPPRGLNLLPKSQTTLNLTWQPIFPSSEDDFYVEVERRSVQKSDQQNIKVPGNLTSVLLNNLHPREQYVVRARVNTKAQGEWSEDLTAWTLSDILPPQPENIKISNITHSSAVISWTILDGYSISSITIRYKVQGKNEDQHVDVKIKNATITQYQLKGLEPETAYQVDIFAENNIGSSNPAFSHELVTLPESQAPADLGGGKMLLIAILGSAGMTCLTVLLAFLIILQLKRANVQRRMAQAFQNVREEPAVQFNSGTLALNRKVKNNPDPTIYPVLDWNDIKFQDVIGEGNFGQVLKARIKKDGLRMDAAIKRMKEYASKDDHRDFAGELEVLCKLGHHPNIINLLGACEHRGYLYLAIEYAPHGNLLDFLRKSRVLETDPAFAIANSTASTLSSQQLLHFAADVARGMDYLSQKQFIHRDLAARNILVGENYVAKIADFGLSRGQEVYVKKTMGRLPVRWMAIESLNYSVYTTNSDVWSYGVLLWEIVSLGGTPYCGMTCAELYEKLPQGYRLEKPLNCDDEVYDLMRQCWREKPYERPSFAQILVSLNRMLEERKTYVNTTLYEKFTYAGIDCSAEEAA
Text: The inhibitor compounds described herein are screened in the following manner. Kinases suitable for use in the following protocol to determine kinase activity of the compounds described herein include, -but are not limited to: Lck, Lyn, Src, Fyn, Syk, Zap-70, Itk, Tec, Btk, EGFR, ErbB2, Kdr, Flt-1, Flt-3, Tek, c-Met, InsR, and AKT.
Kinases are expressed as either kinase domains or full length constructs fused to glutathione S-transferase (GST) or polyHistidine tagged fusion proteins in either E. colior Baculovirus-High Five expression systems. They are purified to near homogeneity by affinity chromatography essentially as previously described (Lehr et al., 1996; Gish et al., 1995). In some instances, kinases are co-expressed or mixed with purified or partially purified regulatory polypeptides prior to measurement of activity.
Kinase activity and inhibition are measured essentially by established protocols (Braunwalder et al., 1996). Briefly, The transfer of ^33PO4 from ATP to the synthetic substrates poly(Glu, Tyr) 4:1 or poly(Arg, Ser) 3:1 attached to the bioactive surface of microtiter plates serves as the basis to evaluate enzyme activity. After an incubation period, the amount of phosphate transferred is measured by first washing the plate with 0.5% phosphoric acid, adding liquid scintillant, and then counting in a liquid scintillation detector. The IC50 is determined by the concentration of compound that causes a 50% reduction in the amount of […] incorporated onto the substrate bound to the plate.

[7] = target: T7, c-Met (Homo sapiens, UniProt P08581); experiment: Kinase inhibition assay (33P transfer), c-Met; details: Table 2, kinase inhibition class; read-out: Met-1
T7 construct: Kinases are expressed as either kinase domains or full length constructs; made in house
Summary of the method: as §2

[8] = target: T8, AKT (Homo sapiens, UniProt Q9Y243); experiment: Kinase inhibition assay (33P transfer), AKT; details: Table 2, kinase inhibition class; read-out: AKT3-1
T8 construct: Kinases are expressed as either kinase domains or full length constructs; made in house
T8 sequence (Q9Y243 whole entry, the tested form may be a part): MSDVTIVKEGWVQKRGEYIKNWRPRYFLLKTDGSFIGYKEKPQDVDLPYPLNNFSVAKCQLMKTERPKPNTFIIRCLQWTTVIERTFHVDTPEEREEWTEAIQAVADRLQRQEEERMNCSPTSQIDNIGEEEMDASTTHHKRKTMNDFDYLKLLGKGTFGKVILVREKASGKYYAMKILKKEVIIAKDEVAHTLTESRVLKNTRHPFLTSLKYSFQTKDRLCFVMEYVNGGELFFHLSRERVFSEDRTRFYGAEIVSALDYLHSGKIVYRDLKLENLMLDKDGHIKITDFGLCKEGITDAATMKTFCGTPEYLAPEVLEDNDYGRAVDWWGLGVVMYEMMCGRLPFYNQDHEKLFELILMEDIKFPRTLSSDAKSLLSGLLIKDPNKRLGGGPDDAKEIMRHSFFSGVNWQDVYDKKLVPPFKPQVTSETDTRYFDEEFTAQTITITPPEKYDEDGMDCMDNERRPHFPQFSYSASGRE
Summary of the method: as §1

T1 sequence (P06239 whole entry, species assumed, the tested form may be a part): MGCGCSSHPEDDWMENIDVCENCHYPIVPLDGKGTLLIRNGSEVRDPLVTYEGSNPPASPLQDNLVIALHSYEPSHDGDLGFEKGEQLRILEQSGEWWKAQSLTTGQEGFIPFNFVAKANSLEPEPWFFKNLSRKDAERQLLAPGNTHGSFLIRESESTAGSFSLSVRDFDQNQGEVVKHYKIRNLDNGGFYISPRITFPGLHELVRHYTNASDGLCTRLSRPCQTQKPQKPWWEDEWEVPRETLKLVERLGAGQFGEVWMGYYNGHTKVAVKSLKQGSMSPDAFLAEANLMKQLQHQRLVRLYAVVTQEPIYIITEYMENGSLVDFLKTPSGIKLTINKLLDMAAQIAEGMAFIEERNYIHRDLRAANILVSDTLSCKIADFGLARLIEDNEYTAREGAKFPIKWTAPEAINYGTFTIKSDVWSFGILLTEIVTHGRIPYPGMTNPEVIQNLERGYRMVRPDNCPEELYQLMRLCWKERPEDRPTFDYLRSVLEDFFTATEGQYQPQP

SMILES | IC50 [1] [µM] | IC50 [2] [µM] | IC50 [3] [µM] | IC50 [4] [µM] | IC50 [5] [µM] | IC50 [6] [µM] | IC50 [7] [µM] | IC50 [8] [µM] | IC50 ([1]; Table 3) [µM] | IC50 ([2]; Table 3) [µM] | IC50 ([3]; Table 3) [µM] | IC50 ([5]; Table 3) [µM]
O=C(O)Cc1ccc(Nc2ncnc(Nc3cc(-c4ccco4)n[nH]3)n2)cc1 [Compound 984] | 1.06 to 6.36 | 9.27 to 11.9 | 1.06 to 6.36 | < 1.06 | < 1.06 | > 11.9 | 1.06 to 6.36 | > 11.9 | – | – | – | –
COc1cc(Nc2ncnc(-c3cccnc3Cl)n2)cc(OC)c1OC [Compound 1075] | > 12 | > 12 | > 12 | > 12 | 9.36 to 12 | > 12 | > 12 | > 12 | – | – | – | –
COc1ccc(Nc2ncnc(-n3c(N)nc4ccccc43)n2)cn1 [Compound 648] | > 13.5 | > 13.5 | > 13.5 | > 13.5 | 1.2 to 7.18 | > 13.5 | > 13.5 | > 13.5 | – | – | – | –
COc1cc(Nc2ncnc(Nc3nc(-c4ccccc4)cs3)n2)cc(OC)c1OC [Compound 444] | – | – | – | > 10.3 | – | > 10.3 | > 10.3 | > 10.3 | > 10.3 | > 10.3 | > 10.3 | > 10.3
CC(C)(C)OC(=O)NCc1cccc(Nc2ncnc(Nc3cc(-c4ccco4)n[nH]3)n2)c1 [Compound 985] | 0.892 to 5.35 | > 10 | 5.35 to 7.8 | 0.892 to 5.35 | 0.892 to 5.35 | 5.35 to 7.8 | 5.35 to 7.8 | > 10 | – | – | – | –
O=c1[nH]c2ccccc2n1-c1ncnc(Nc2nccc3ccccc23)n1 [Compound 689] | 6.75 to 9.85 | 1.13 to 6.75 | > 12.7 | 1.13 to 6.75 | 6.75 to 9.85 | 6.75 to 9.85 | 6.75 to 9.85 | > 12.7 | – | – | – | –
Nc1nc2ccccc2n1-c1ncnc(Nc2ccc3c(c2)OCO3)n1 [Compound 526] | 1.15 to 6.91 | 1.15 to 6.91 | 1.15 to 6.91 | 1.15 to 6.91 | < 1.15 | 1.15 to 6.91 | 1.15 to 6.91 | 6.91 to 10.1 | – | – | – | –
Nc1ncnc(-n2c(N)nc3ccccc32)n1 [Compound 646] | > 19.8 | > 19.8 | 10.6 to 15.4 | > 19.8 | 1.76 to 10.6 | > 19.8 | > 19.8 | 1.76 to 10.6 | – | – | – | –
COc1cc(Nc2ncnc(Nc3ccc(NC(=O)O[C@@H]4CCOC4)cc3)n2)cc(OC)c1OC [Compound 693] | 0.829 to 4.97 | > 9.33 | 4.97 to 7.25 | 0.829 to 4.97 | 0.829 to 4.97 | > 9.33 | 0.829 to 4.97 | > 9.33 | – | – | – | –
COc1cc(Nc2ncnc(-n3ccc4ccc(F)cc43)n2)cc(OC)c1OC [Compound 464] | – | – | – | > 11.4 | – | > 11.4 | > 11.4 | > 11.4 | 6.07 to 8.85 | > 11.4 | > 11.4 | 1.01 to 6.07
COc1ccc(-c2ncnc(Nc3cc(OC)c(OC)c(OC)c3)n2)cc1OC [Compound 230] | 1 to 6.02 | > 11.3 | 8.78 to 11.3 | 8.78 to 11.3 | < 1 | 8.78 to 11.3 | > 11.3 | > 11.3 | – | – | – | –
COc1cc(Nc2nc3ccccc3n2-c2ncnc(Nc3cc(OC)c(OC)c(OC)c3)n2)cc(OC)c1 [Compound 399] | – | – | – | > 8.5 | – | > 8.5 | > 8.5 | 6.61 to 8.5 | 6.61 to 8.5 | > 8.5 | > 8.5 | 0.755 to 4.53
COc1cc(Nc2ncnc(NN3CCCC3)n2)cc(OC)c1OC [Compound 1002] | > 13 | > 13 | > 13 | > 13 | 10.1 to 13 | > 13 | > 13 | > 13 | – | – | – | –
O=c1[nH]c2ccccc2n1-c1ncnc(Nc2ccc(C(F)(F)F)cc2)n1 [Compound 505] | > 12.1 | 9.4 to 12.1 | > 12.1 | > 12.1 | > 12.1 | 6.45 to 9.4 | > 12.1 | > 12.1 | – | – | – | –
O=c1[nH]c2ccccc2n1-c1ncnc(Nc2cnc3ccccc3c2)n1 [Compound 508] | 1.13 to 6.75 | > 12.7 | 6.75 to 9.85 | > 12.7 | 1.13 to 6.75 | 6.75 to 9.85 | > 12.7 | > 12.7 | – | – | – | –
COc1cc(Nc2ncnc(-n3c(NCCc4cccnc4)nc4ccccc43)n2)cc(OC)c1OC [Compound 947] | > 9.03 | > 9.03 | 4.81 to 7.02 | > 9.03 | < 0.802 | > 9.03 | > 9.03 | > 9.03 | – | – | – | –
Nc1nc2ccccc2n1-c1ncnc(Nc2ccc(-c3cnco3)cc2)n1 [Compound 438] | – | – | – | 1.08 to 6.48 | – | 1.08 to 6.48 | 1.08 to 6.48 | 6.48 to 9.45 | 1.08 to 6.48 | 9.45 to 12.1 | 1.08 to 6.48 | 1.08 to 6.48
COc1cc(Nc2ncnc(-n3c(N(C)C)nc4ccccc43)n2)cc(OC)c1OC [Compound 405] | – | – | – | > 10.7 | – | > 10.7 | > 10.7 | > 10.7 | > 10.7 | > 10.7 | > 10.7 | 0.949 to 5.69
COc1cc(Nc2ncnc(N[C@@H](CO)c3ccccc3)n2)cc(OC)c1OC [Compound 427] | – | – | – | > 11.3 | – | > 11.3 | > 11.3 | > 11.3 | > 11.3 | > 11.3 | > 11.3 | > 11.3
CC(C)(C)c1cc(Nc2ncnc(Nc3cccc(CC(=O)O)c3)n2)[nH]n1 [Compound 979] | > 12.2 | > 12.2 | > 12.2 | 1.09 to 6.53 | 6.53 to 9.53 | > 12.2 | 1.09 to 6.53 | > 12.2 | – | – | – | –
